Assay results: patent publication US12673942B2, “Azabicyclyl-substituted heterocycles as fungicides” (Bayer Aktiengesellschaft, priority 2020, dated 2026)

Columns and labels:
[1] = Measurement of Log P values by HPLC on reversed phase columns (EEC directive 79/831 Annex V.A8); type: physicochemical
Description: Measurement of Log P values as provided herein was performed according to EEC directive 79/831 Annex V.A8 by HPLC (High Performance Liquid Chromatography) on reversed phase columns with the following methods: • ^[a] Log P value is determined by measurement of LC-UV, in an acidic range, with 0.1% formic acid in water and acetonitrile as eluent (linear gradient from 10% acetonitrile to 95% acetonitrile). • ^[b] Log P value is determined by measurement of LC-UV, in a neutral range, with 0.001 molar ammonium acetate solution in water and acetonitrile as eluent (linear gradient from 10% acetonitrile to 95% acetonitrile). • ^[c] Log P value is determined by measurement of LC-UV, in an acidic range, with 0.1% phosphoric acid and acetonitrile as eluent (linear gradient from 10% acetonitrile to 95% acetonitrile).
If more than one Log P value is available within the same method, all the values are given and separated by “+”. […]

[2] = system: Alternaria alternata; assay: Alternaria alternata in vitro cell test; type: cell-based; details: 120 h, 20 ppm of active ingredient, liquid culture, 5 days incubation, read-out: efficacy (inhibition of fungal growth)
Description: (§1) • Solvent: […] Fungicides were solubilized in DMSO and the solution used to prepare the required range of concentrations. The final concentration of DMSO used in the assay was ≤1%. A spore suspension of Alternaria alternata was prepared and diluted to the desired spore density. Fungicides were evaluated for their ability to inhibit spore germination and mycelium growth in liquid culture assay. The compounds were added in the desired concentration to the culture medium with spores. After 5 days incubation, fungi-toxicity of compounds was determined by spectrometric measurement of mycelium growth. Inhibition of fungal growth was determined by comparing the absorbance values in wells containing the fungicides with the absorbance in control wells without fungicides.

[3] = system: Fusarium culmorum; assay: Fusarium culmorum in vitro cell test; type: cell-based; details: 96 h, 20 ppm of active ingredient, liquid culture, 4 days incubation, read-out: efficacy (inhibition of fungal growth)
Description: • Solvent: DMSO • Culture medium: 14.6 g anhydrous D-glucose (VWR), 7.1 g Mycological Peptone (Oxoid), 1.4 g granulated Yeast Extract (Merck), QSP 1 liter • Inoculum: spore suspension
Fungicides were solubilized in DMSO and the solution used to prepare the required range of concentrations. The final concentration of DMSO used in the assay was ≤1%.
A spore suspension of Fusarium culmorum was prepared and diluted to the desired spore density.
Fungicides were evaluated for their ability to inhibit spore germination and mycelium growth in liquid culture assay. The compounds were added in the desired concentration to the culture medium with spores. After 4 days incubation, fungi-toxicity of compounds was determined by spectrometric measurement of mycelium growth. Inhibition of fungal growth was determined by comparing the absorbance values in wells containing the fungicides with the absorbance in control wells without fungicides.

[4] = system: Pyricularia oryzae; assay: microbe, parasite or virus in culture; type: cell-based; details: 120 h, read-out: efficacy (inhibition of fungal growth)
[5] = system: Colletotrichum lindemuthianum; assay: Colletotrichum lindemuthianum in vitro cell test; type: cell-based; details: 144 h, 20 ppm of active ingredient, liquid culture, 6 days incubation, read-out: efficacy (inhibition of fungal growth)
Description: as §1, with “1%.” for “≤1%.”, “Colletotrichum lindemuthianum” for “Alternaria alternata”, “6” for “5”

[6] = system: Septoria tritici; assay: Septoria tritici in vitro cell test; type: cell-based; details: Zymoseptoria tritici, 168 h; 20 ppm of active ingredient; liquid culture, 7 days incubation; read-out: efficacy (inhibition of fungal growth)
Description: • Solvent: DMSO • Culture medium: 1 g KH2PO4 (VWR), 1 g K2HPO4 (VWR), 0.5 g Urea (VWR), 3 g KNO3 (Prolabo), 10 g saccharose (VWR), 0.5 g MgSO4, 7H2O (Sigma), 0.07 g CaCl2, 2H2O (Prolabo), 0.2 mg MnSO4, H2O (Sigma), 0.6 mg CuSO4, 5H2O (Sigma), 7.9 mg ZnSO4, 7H2O (Sigma), 0.1 mg H3BO3 (Merck), 0.14 mg NaMoO4, 2H2O (Sigma), 2 mg thiamine (Sigma), 0.1 mg biotine (VWR), 4 mg FeSO4, 7H2O (Sigma), QSP 1 liter • Inoculum: spore suspension Fungicides were solubilized in DMSO and the solution used to prepare the required range of concentrations. The final concentration of DMSO used in the assay was 1%. A spore suspension of Septoria tritici was prepared and diluted to the desired spore density. Fungicides were evaluated for their ability to inhibit spore germination and mycelium growth in liquid culture assay. The compounds were added in the desired concentration to the culture medium with spores. […] Inhibition of fungal growth was determined by comparing the absorbance values in wells containing the fungicides with the absorbance in control wells without fungicides.

[7] = method [a]: LC-UV, acidic range, 0.1% formic acid in water and acetonitrile as eluent
[8] = method [b]: LC-UV, neutral range, 0.001 molar ammonium acetate solution in water and acetonitrile as eluent

| Structure (SMILES) | chromatographic logP [1, 7] | inhibition at 20 ppm [2] [%] | inhibition at 20 ppm [3] [%] | inhibition at 20 ppm [4] [%] | inhibition at 20 ppm [5] [%] | inhibition at 20 ppm [6] [%] | chromatographic logP [1, 8] | LogP [1, 7] |
| --- | --- | --- | --- | --- | --- | --- | --- | --- |
| FC(F)(F)c1cccc(Oc2nnc3ccccc3c2C2=NOC[C@@H](Cc3ccc(Br)cc3Cl)N2)c1 (racemic) [Compound I-007] | 4.44 | ≥ 70 | ≥ 70 | ≥ 70 | ≥ 70 | ≥ 70 | – | – |
| Cc1cccc(Oc2nnc3ccccc3c2C2=NOCC(Cc3ccc(C)cc3C)N2)c1 (racemic) [Compound I-001, 4-[(5RS)-5-(2,4-dimethylbenzyl)-5,6-dihydro-4H-1,2,4-oxadiazin-3-yl]-3-(3-methylphenoxy)cinnoline] | 3.85 | ≥ 70 | ≥ 70 | ≥ 70 | ≥ 70 | – | – | – |
| Cc1ccc(CC2CON=C(c3c(Oc4cccc(C5CC5)c4F)nnc4ccccc34)N2)c(C)c1 (racemic) [Compound I-006, 3-(3-cyclopropyl-2-fluorophenoxy)-4-[(5RS)-5-(2,4-dimethylbenzyl)-5,6-dihydro-4H-1,2,4-oxadiazin-3-yl]cinnoline] | 4.37 | ≥ 70 | ≥ 70 | ≥ 70 | ≥ 70 | ≥ 70 | – | – |
| Cn1cc(-c2ccc(C[C@@H]3CON=C(c4c(Oc5cccc(C(F)(F)F)c5)nnc5ccccc45)N3)c(Cl)c2)cn1 (racemic) [Compound I-008] | 3.37 | ≥ 70 | – | ≥ 70 | ≥ 70 | – | – | – |
| Cc1ccc(CC2CNN=C(c3c(Oc4cccc(C(F)(F)F)c4)cnc4ccccc34)N2)c(C)c1 (racemic) [Compound I-010, 4-[(5RS)-5-(2,4-dimethylbenzyl)-1,4,5,6-tetrahydro-1,2,4-triazin-3-yl]-3-[3-(trifluoromethyl)phenoxy]quinoline] | 2.57 | ≥ 70 | – | – | – | – | – | – |
| Cc1ccc(C[C@@H]2CON=C(c3c(Oc4cccc(C(F)(F)F)c4)cnc4ccoc34)N2)c(C)c1 (racemic) [Compound I-013] | 3.96 | ≥ 70 | ≥ 70 | ≥ 70 | ≥ 70 | ≥ 70 | – | – |
| FC(F)(F)c1cccc(Oc2cnc3ccccc3c2C2=NC[C@@H](Cc3ccc(Cl)cc3)N2)c1 (racemic) [Compound I-015] | 2.46 | ≥ 70 | ≥ 70 | ≥ 70 | ≥ 70 | ≥ 70 | – | – |
| Cc1ccc(CC2CN=C(c3c(Oc4cccc(C(F)(F)F)c4)cnc4ccccc34)N2)c(C)c1 (racemic) [Compound I-011, 4-[(5RS)-5-(2,4-dimethylbenzyl)-4,5-dihydro-1H-imidazol-2-yl]-3-[3-(trifluoromethyl)phenoxy]quinoline] | 2.57 | ≥ 70 | – | ≥ 70 | ≥ 70 | – | – | – |
| Cc1ccc(C[C@@H]2CN=C(c3c(Oc4cccc(Cl)c4)nnc4ccccc34)N2)c(C)c1 (racemic) [Compound I-012] | 2.46 | ≥ 70 | – | ≥ 70 | ≥ 70 | – | – | – |
| Cc1ccc(C[C@@H]2CON=C(c3c(Oc4cccc(C(F)(F)F)c4)cnc4ccccc34)N2)c(C)c1 (racemic) [Compound I-004] | 4.19 | ≥ 70 | ≥ 70 | ≥ 70 | ≥ 70 | – | – | – |
| Cc1ccc(C[C@@H]2CON=C(c3c(Oc4cccc(C(F)(F)F)c4)nnc4cc(C)ccc34)N2)c(C)c1 (racemic) [Compound I-005] | 4.32 | ≥ 70 | ≥ 70 | ≥ 70 | ≥ 70 | – | 4.27 | – |
| Cc1ccc(C[C@@H]2CON=C(c3c(Oc4cccc(C5CC5)c4)nnc4ccccc34)N2)c(C)c1 (racemic) [Compound I-003] | 4.11 | ≥ 70 | ≥ 70 | ≥ 70 | ≥ 70 | – | – | – |
| C=Cc1ccc(C[C@@H]2CON=C(c3c(Oc4cccc(C(F)(F)F)c4)nnc4ccccc34)N2)c(Cl)c1 (racemic) [Compound I-009] | 4.44 | ≥ 70 | ≥ 70 | ≥ 70 | ≥ 70 | ≥ 70 | – | – |
| Cc1ccc(C[C@@H]2CON=C(c3c(Oc4cccc(C5CC5)c4F)cnc4nccnc34)N2)c(C)c1 (racemic) [Compound I-014] | 3.5 | ≥ 70 | ≥ 70 | – | ≥ 70 | ≥ 70 | – | – |
| Cc1ccc(CC2CON=C(c3c(Oc4cccc(Cl)c4)nnc4ccccc34)N2)c(C)c1 (racemic) [Compound I-002, 3-(3-chlorophenoxy)-4-[(5RS)-5-(2,4-dimethylbenzyl)-5,6-dihydro-4H-1,2,4-oxadiazin-3-yl]cinnoline] | 3.96 | ≥ 70 | ≥ 70 | ≥ 70 | ≥ 70 | – | – | – |
| Cc1ccc(C[C@@H](CON)NC(=O)c2c(Oc3cccc(C(F)(F)F)c3)nnc3cc(C)ccc23)c(C)c1 (racemic) [Compound 4-01] | 3.42 | – | – | – | – | – | 3.62 | 3.51 |
| Cc1ccc(C[C@H](CON2C(=O)c3ccccc3C2=O)NC(=O)c2c(Oc3cccc(C(F)(F)F)c3)nnc3c2CCC3)c(C)c1 (racemic) [Compound 3-12] | 4.47 | – | – | – | – | – | – | – |
| Cc1ccc(CC(CCl)NC(=O)c2c(Oc3cccc(C(F)(F)F)c3)cnc3ccccc23)c(C)c1 (racemic) [Compound 10-02, N-[(2RS)-1-chloro-3-(2,4-dimethylphenyl)propan-2-yl]-3-[3-(trifluoro-methyl)phenoxy]quinoline-4-carboxamide] | 4.81 | – | – | – | – | – | – | – |
| Cc1ccc(C[C@@H]2CON=C(c3c(Oc4cccc(C(F)F)c4)nnc4c3CCCC4)N2)c(C)c1 (racemic) [Compound I-028] | 3.6 | – | – | – | – | – | – | – |
| Cc1ccc(C[C@H](CON)NC(=O)c2c(Oc3cccc(C(F)(F)F)c3)cnc3ccccc23)c(C)c1 (racemic) [Compound 4-02] | 3.17 | – | – | – | – | – | – | – |
| C=Cc1cccc(Oc2cnc3ccccc3c2C(=O)N[C@@H](CON)Cc2ccc(C)cc2C)c1 (racemic) [Compound 4-06] | 3.09 | – | – | – | – | – | – | – |
| Cc1ccc(C[C@H](CCl)NC(=O)c2c(Oc3cccc(C4CC4)c3F)cnc3ccccc23)c(Cl)c1 (racemic) [Compound 10-03] | 5 | – | – | – | – | – | – | – |
